Data published in the supplement of paper PMC9663587.

Legend:
Assay in all cases: GR value, 72 h; higher = faster growth (1 = untreated, <0 = killing);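 also: breast cancer and non-malignant breast epithelial lines, nine half-log doses, viable cells counted by Hoechst and LIVE/DEAD dye imaging versus time-zero plates and DMSO controls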
Cabozantinib = compound: COc1cc2nccc(Oc3ccc(NC(=O)C4(C(=O)Nc5ccc(F)cc5)CC4)cc3)c2cc1OC [Cabozantinib]
FMF-03-146-1 = compound: CN1CCN(CC1)C2=CC(=C(C=C2)NC3=NC=C4C(=N3)N(C5=CC=CC=C5C(=O)N4CC(F)(F)F)C)OC [FMF-03-146-1]
AZD6738 = compound: C[C@@H]1COCCN1c1cc(C2([S@](C)(=N)=O)CC2)nc(-c2cc[nH]c3nccc2-3)n1 [AZD6738]
Everolimus = compound: CO[C@H]1C[C@@H]2CC[C@@H](C)[C@@](O)(O2)C(=O)C(=O)N2CCCC[C@H]2C(=O)O[C@H]([C@H](C)C[C@@H]2CC[C@@H](OCCO)[C@H](OC)C2)CC(=O)[C@H](C)/C=C(\C)[C@@H](O)[C@@H](OC)C(=O)[C@H](C)C[C@H](C)/C=C/C=C/C=C/1C [Everolimus]
[1] = compound: CC(=O)Nc1cccc(-n2c(=O)n(C3CC3)c(=O)c3c(Nc4ccc(I)cc4F)n(C)c(=O)c(C)c32)c1
BVD523 = compound: CC(C)Nc1cc(-c2c[nH]c(C(=O)N[C@H](CO)c3cccc(Cl)c3)c2)c(Cl)cn1 [BVD523]
Buparlisib/NVP-BKM120 = compound: Nc1cc(C(F)(F)F)c(-c2cc(N3CCOCC3)nc(N3CCOCC3)n2)cn1 [Buparlisib/NVP-BKM120]
SHP099 = compound: CC1(CCN(CC1)C2=CN=C(C(=N2)N)C3=C(C(=CC=C3)Cl)Cl)N [SHP099]
Alpelisib/BYL719 = compound: Cc1nc(NC(=O)N2CCC[C@H]2C(N)=O)sc1-c1ccnc(C(C)(C)C(F)(F)F)c1 [Alpelisib/BYL719]
TGX221 = compound: CC1=CN2C(=O)C=C(N=C2C(=C1)C(C)NC3=CC=CC=C3)N4CCOCC4 [TGX221]
THZ-P1-2 = compound: CN(C)C/C=C/C(=O)NC1=CC=C(C=C1)C(=O)NC2=CC=CC(=C2)NC3=NC=NC(=C3)C4=CNC5=CC=CC=C54 [THZ-P1-2]

With AU565 the GR value (Cabozantinib; 0.001 µM) was 1.03 GR, the GR value (Cabozantinib; 0.003162 µM) was 1.04 GR and the GR value (Cabozantinib; 0.01 µM) was 1.03 GR. It also gave a GR value (Cabozantinib; 0.03162 µM) of 1.06 GR, a GR value (Cabozantinib; 0.1 µM) of 1.06 GR and a GR value (Cabozantinib; 0.3162 µM) of 1.12 GR. The GR value (Cabozantinib; 1 µM) was 0.997 GR, the GR value (Cabozantinib; 3.162 µM) was 1.02 GR and the GR value (Cabozantinib; 10 µM) was 0.309 GR. The GR value (FMF-03-146-1; 0.001 µM) was 0.955 GR, the GR value (FMF-03-146-1; 0.003162 µM) was 1.02 GR and the GR value (FMF-03-146-1; 0.01 µM) was 1.03 GR. For the same cell line, the GR value (FMF-03-146-1; 0.03162 µM) was 1 GR, the GR value (FMF-03-146-1; 0.1 µM) was 0.928 GR and the GR value (FMF-03-146-1; 0.3162 µM) was 0.924 GR. It also gave a GR value (FMF-03-146-1; 1 µM) of 0.874 GR, a GR value (FMF-03-146-1; 3.162 µM) of 0.894 GR and a GR value (FMF-03-146-1; 10 µM) of 0.695 GR. For the same cell line, the GR value (AZD6738; 0.001 µM) was 0.973 GR, the GR value (AZD6738; 0.003162 µM) was 0.919 GR and the GR value (AZD6738; 0.01 µM) was 1.05 GR. For the same cell line, the GR value (AZD6738; 0.03162 µM) was 1.14 GR, the GR value (AZD6738; 0.1 µM) was 1 GR and the GR value (AZD6738; 0.3162 µM) was 0.982 GR. For the same cell line, the GR value (AZD6738; 1 µM) was 0.897 GR, the GR value (AZD6738; 3.162 µM) was 1.08 GR and the GR value (AZD6738; 10 µM) was 0.281 GR. The GR value (Everolimus; 0.001 µM) was 0.523 GR, the GR value (Everolimus; 0.003162 µM) was 0.451 GR and the GR value (Everolimus; 0.01 µM) was 0.429 GR. The GR value (Everolimus; 0.03162 µM) was 0.494 GR, the GR value (Everolimus; 0.1 µM) was 0.396 GR and the GR value (Everolimus; 0.3162 µM) was 0.509 GR. For the same cell line, the GR value (Everolimus; 1 µM) was 0.408 GR, the GR value (Everolimus; 3.162 µM) was 0.454 GR and the GR value (Everolimus; 10 µM) was 0.398 GR. For the same cell line, the GR value ([1]; 0.0001 µM) was 1.05 GR, the GR value ([1]; 0.0003162 µM) was 0.96 GR and the GR value ([1]; 0.001 µM) was 1.08 GR. It also gave a GR value ([1]; 0.003162 µM) of 1.05 GR, a GR value ([1]; 0.01 µM) of 1.02 GR and a GR value ([1]; 0.03162 µM) of 0.968 GR. The GR value ([1]; 0.1 µM) was 1.08 GR, the GR value ([1]; 0.3162 µM) was 1.02 GR and the GR value ([1]; 1 µM) was 1.01 GR. It also gave a GR value (BVD523; 0.001 µM) of 1.17 GR, a GR value (BVD523; 0.003162 µM) of 0.925 GR and a GR value (BVD523; 0.01 µM) of 1.04 GR. For the same cell line, the GR value (BVD523; 0.03162 µM) was 0.941 GR, the GR value (BVD523; 0.1 µM) was 1.06 GR and the GR value (BVD523; 0.3162 µM) was 0.956 GR. For the same cell line, the GR value (BVD523; 1 µM) was 0.985 GR, the GR value (BVD523; 3.162 µM) was 0.761 GR and the GR value (BVD523; 10 µM) was 0.525 GR. It also gave a GR value (Buparlisib/NVP-BKM120; 0.001 µM) of 1.05 GR, a GR value (Buparlisib/NVP-BKM120; 0.003162 µM) of 1.07 GR and a GR value (Buparlisib/NVP-BKM120; 0.01 µM) of 0.976 GR. The GR value (Buparlisib/NVP-BKM120; 0.03162 µM) was 0.845 GR, the GR value (Buparlisib/NVP-BKM120; 0.1 µM) was 0.505 GR and the GR value (Buparlisib/NVP-BKM120; 0.3162 µM) was 0.186 GR. For the same cell line, the GR value (Buparlisib/NVP-BKM120; 1 µM) was -0.365 GR, the GR value (Buparlisib/NVP-BKM120; 3.162 µM) was -0.533 GR and the GR value (Buparlisib/NVP-BKM120; 10 µM) was -0.494 GR. For the same cell line, the GR value (SHP099; 0.001 µM) was 0.972 GR, the GR value (SHP099; 0.003162 µM) was 0.94 GR and the GR value (SHP099; 0.01 µM) was 0.815 GR. It also gave a GR value (SHP099; 0.03162 µM) of 1.07 GR, a GR value (SHP099; 0.1 µM) of 1 GR and a GR value (SHP099; 0.3162 µM) of 0.949 GR. It also gave a GR value (SHP099; 1 µM) of 0.925 GR, a GR value (SHP099; 3.162 µM) of 0.932 GR and a GR value (SHP099; 10 µM) of 0.939 GR. For the same cell line, the GR value (Alpelisib/BYL719; 0.001 µM) was 0.962 GR, the GR value (Alpelisib/BYL719; 0.003162 µM) was 1.06 GR and the GR value (Alpelisib/BYL719; 0.01 µM) was 0.931 GR. For the same cell line, the GR value (Alpelisib/BYL719; 0.03162 µM) was 0.762 GR, the GR value (Alpelisib/BYL719; 0.1 µM) was 0.621 GR and the GR value (Alpelisib/BYL719; 0.3162 µM) was 0.504 GR. It also gave a GR value (Alpelisib/BYL719; 1 µM) of 0.215 GR, a GR value (Alpelisib/BYL719; 3.162 µM) of -0.0201 GR and a GR value (Alpelisib/BYL719; 10 µM) of -0.464 GR. The GR value (TGX221; 0.001 µM) was 0.923 GR, the GR value (TGX221; 0.003162 µM) was 0.912 GR and the GR value (TGX221; 0.01 µM) was 0.868 GR. It also gave a GR value (TGX221; 0.03162 µM) of 0.964 GR, a GR value (TGX221; 0.1 µM) of 0.916 GR and a GR value (TGX221; 0.3162 µM) of 0.889 GR. For the same cell line, the GR value (TGX221; 1 µM) was 0.919 GR, the GR value (TGX221; 3.162 µM) was 0.852 GR and the GR value (TGX221; 10 µM) was 0.58 GR. For the same cell line, the GR value (THZ-P1-2; 0.01 µM) was 0.964 GR, the GR value (THZ-P1-2; 0.03162 µM) was 1.02 GR and the GR value (THZ-P1-2; 0.1 µM) was 0.979 GR. The GR value (THZ-P1-2; 0.3162 µM) was 0.842 GR, the GR value (THZ-P1-2; 1 µM) was 0.865 GR and the GR value (THZ-P1-2; 3.162 µM) was 0.881 GR. For the same cell line, the GR value (THZ-P1-2; 10 µM) was -0.648 GR.
